From ChEMBL document CHEMBL4049462, “Synthesis and Biological Evaluation of Novel Neuroprotective Pyridazine Derivatives as Excitatory Amino Acid Transporter 2 (EAAT2) Activators” (2017)

Key:
Type in all cases: functional
Rattus norvegicus [1] = test: Antiallodynic activity in oxaliplatin-induced Sprague-Dawley rat allodynia model assessed as paw withdrawal latency time at 3 mg/kg, sc administered daily up to day 13 measured on day 14 post last dose by cold plate test (reference value: 12 +/- 1.2 secs)
Rattus norvegicus [2] = test: Antiallodynic activity in oxaliplatin-induced Sprague-Dawley rat allodynia model assessed as increase in paw withdrawal latency time at 3 mg/kg, sc administered daily up to day 13 measured on day 14 post last dose by Von Frey test relative to control
Rattus norvegicus [3] = test: Antiallodynic activity in oxaliplatin-induced Sprague-Dawley rat allodynia model assessed as paw withdrawal latency time at 3 mg/kg, sc administered daily up to day 6 measured on day 7 post last dose by cold plate test (reference value: 14.3 +/- 0.3 secs)
Rattus norvegicus [4] = test: Antihypersensitivity in oxaliplatin-induced Sprague-Dawley rat thermal hyperalgesia model assessed as paw withdrawal latency time at 3 mg/kg, sc administered daily up to day 6 measured on day 7 post last dose by plantar test (reference value: 9 +/- 1 secs)
Rattus norvegicus [5] = test: Antihypersensitivity in oxaliplatin-induced Sprague-Dawley rat hyperalgesia model assessed as increase in weight tolerated on posterior paw at 3 mg/kg, sc administered daily for 7 days post oxaliplatin challenge measured on day 7 post last dose by analgesimeter relative to control
Rattus norvegicus [6] = test: Antihypersensitivity in oxaliplatin-induced Sprague-Dawley rat thermal hyperalgesia model assessed as paw withdrawal latency time at 3 mg/kg, sc administered daily up to day 13 measured on day 14 post last dose by plantar test (reference value: 10.6 +/- 0.5 secs)
Rattus norvegicus [7] = test: Antihypersensitivity in oxaliplatin-induced Sprague-Dawley rat hyperalgesia model assessed as increase in weight tolerated on posterior paw at 3 mg/kg, sc administered daily for 14 days post oxaliplatin challenge measured on day 14 post last dose by analgesimeter relative to control
Rattus norvegicus [8] = test: Antiallodynic activity in oxaliplatin-induced Sprague-Dawley rat allodynia model assessed as increase in paw withdrawal latency time at 3 mg/kg, sc administered daily up to day 6 measured on day 7 post last dose by Von Frey test relative to control
Rattus norvegicus [9] = test: Antihypersensitivity in oxaliplatin-induced Sprague-Dawley rat thermal hyperalgesia model assessed as paw withdrawal latency time at 3.43 mg/kg, sc administered daily up to day 13 measured on day 14 post last dose by plantar test (reference value: 10.6 +/- 0.5 secs)
Rattus norvegicus [10] = test: Antihypersensitivity in oxaliplatin-induced Sprague-Dawley rat thermal hyperalgesia model assessed as paw withdrawal latency time at 3.43 mg/kg, sc administered daily up to day 6 measured on day 7 post last dose by plantar test (reference value: 9 +/- 1 secs)
Rattus norvegicus [11] = test: Antiallodynic activity in oxaliplatin-induced Sprague-Dawley rat allodynia model assessed as paw withdrawal latency time at 3.43 mg/kg, sc administered daily up to day 13 measured on day 14 post last dose by cold plate test (reference value: 12 +/- 1.2 secs)
Rattus norvegicus [12] = test: Antiallodynic activity in oxaliplatin-induced Sprague-Dawley rat allodynia model assessed as paw withdrawal latency time at 3.43 mg/kg, sc administered daily up to day 6 measured on day 7 post last dose by Von Frey test (reference value: 12.4 +/- 1.2 secs)
Rattus norvegicus [13] = test: Antiallodynic activity in oxaliplatin-induced Sprague-Dawley rat allodynia model assessed as paw withdrawal latency time at 3.43 mg/kg, sc administered daily up to day 6 measured on day 7 post last dose by cold plate test (reference value: 14.3 +/- 0.3 secs)
Rattus norvegicus [14] = test: Antihypersensitivity in oxaliplatin-induced Sprague-Dawley rat hyperalgesia model assessed as weight tolerated on posterior paw at 3.43 mg/kg, sc administered daily for 7 days post oxaliplatin challenge measured on day 7 post last dose by analgesimeter (reference value: 46.1 +/- 0.5 g)
Rattus norvegicus [15] = test: Antihypersensitivity in oxaliplatin-induced Sprague-Dawley rat hyperalgesia model assessed as increase in weight tolerated on posterior paw at 3.43 mg/kg, sc administered daily up to day 13 measured on day 14 post last dose by analgesimeter relative to control
Rattus norvegicus [16] = test: Antiallodynic activity in oxaliplatin-induced Sprague-Dawley rat allodynia model assessed as increase in paw withdrawal latency time at 3.37 mg/kg, sc administered daily up to day 13 measured on day 14 post last dose by Von Frey test relative to control
Rattus norvegicus [17] = test: Antiallodynic activity in oxaliplatin-induced Sprague-Dawley rat allodynia model assessed as paw withdrawal latency time at 3.37 mg/kg, sc administered daily up to day 6 measured on day 7 post last dose by cold plate test (reference value: 14.3 +/- 0.3 secs)
Rattus norvegicus [18] = test: Antihypersensitivity in oxaliplatin-induced Sprague-Dawley rat thermal hyperalgesia model assessed as paw withdrawal latency time at 3.37 mg/kg, sc administered daily up to day 6 measured on day 7 post last dose by plantar test (reference value: 9 +/- 1 secs)
Rattus norvegicus [19] = test: Antiallodynic activity in oxaliplatin-induced Sprague-Dawley rat allodynia model assessed as paw withdrawal latency time at 3.37 mg/kg, sc administered daily up to day 13 measured on day 14 post last dose by cold plate test (reference value: 12 +/- 1.2 secs)
Rattus norvegicus [20] = test: Antiallodynic activity in oxaliplatin-induced Sprague-Dawley rat allodynia model assessed as increase in paw withdrawal latency time at 3.43 mg/kg, sc administered daily up to day 13 measured on day 14 post last dose by Von Frey test relative to control
Rattus norvegicus [21] = test: Antiallodynic activity in oxaliplatin-induced Sprague-Dawley rat allodynia model assessed as paw withdrawal latency time at 3.37 mg/kg, sc administered daily up to day 6 measured on day 7 post last dose by Von Frey test (reference value: 12.4 +/- 1.2 secs)
Rattus norvegicus [22] = test: Antihypersensitivity in oxaliplatin-induced Sprague-Dawley rat hyperalgesia model assessed as increase in weight tolerated on posterior paw at 3.37 mg/kg, sc administered daily up to day 13 measured on day 14 post last dose by analgesimeter relative to control
Rattus norvegicus [23] = test: Antihypersensitivity in oxaliplatin-induced Sprague-Dawley rat hyperalgesia model assessed as weight tolerated on posterior paw at 3.37 mg/kg, sc administered daily for 7 days post oxaliplatin challenge measured on day 7 post last dose by analgesimeter (reference value: 46.1 +/- 0.5 g)
Rattus norvegicus [24] = test: Antihypersensitivity in oxaliplatin-induced Sprague-Dawley rat thermal hyperalgesia model assessed as paw withdrawal latency time at 3.37 mg/kg, sc administered daily up to day 13 measured on day 14 post last dose by plantar test (reference value: 10.6 +/- 0.5 secs)
Rattus norvegicus [25] = test: Antihypersensitivity in oxaliplatin-induced Sprague-Dawley rat thermal hyperalgesia model assessed as paw withdrawal latency time at 3.28 mg/kg, sc administered daily up to day 6 measured on day 7 post last dose by plantar test (reference value: 9 +/- 1 secs)
Rattus norvegicus [26] = test: Antiallodynic activity in oxaliplatin-induced Sprague-Dawley rat allodynia model assessed as increase in paw withdrawal latency time at 3.28 mg/kg, sc administered daily up to day 6 measured on day 7 post last dose by Von Frey test relative to control
Rattus norvegicus [27] = test: Antihypersensitivity in oxaliplatin-induced Sprague-Dawley rat hyperalgesia model assessed as weight tolerated on posterior paw at 3.28 mg/kg, sc administered daily up to day 13 measured on day 14 post last dose by analgesimeter (reference value: 44.7 +/- 1.2 g)
Rattus norvegicus [28] = test: Antihypersensitivity in oxaliplatin-induced Sprague-Dawley rat hyperalgesia model assessed as weight tolerated on posterior paw at 3.28 mg/kg, sc administered daily for 7 days post oxaliplatin challenge measured on day 7 post last dose by analgesimeter (reference value: 46.1 +/- 0.5 g)
Rattus norvegicus [29] = test: Antiallodynic activity in oxaliplatin-induced Sprague-Dawley rat allodynia model assessed as paw withdrawal latency time at 3.28 mg/kg, sc administered daily up to day 6 measured on day 7 post last dose by cold plate test (reference value: 14.3 +/- 0.3 secs)
Rattus norvegicus [30] = test: Antiallodynic activity in oxaliplatin-induced Sprague-Dawley rat allodynia model assessed as paw withdrawal latency time at 3.28 mg/kg, sc administered daily up to day 13 measured on day 14 post last dose by cold plate test (reference value: 12 +/- 1.2 secs)
Rattus norvegicus [31] = test: Antiallodynic activity in oxaliplatin-induced Sprague-Dawley rat allodynia model assessed as paw withdrawal latency time at 3.28 mg/kg, sc administered daily up to day 13 measured on day 14 post last dose by Von Frey test (reference value: 11.6 +/- 0.5 secs)
Rattus norvegicus [32] = test: Antihypersensitivity in oxaliplatin-induced Sprague-Dawley rat thermal hyperalgesia model assessed as paw withdrawal latency time at 3.28 mg/kg, sc administered daily up to day 13 measured on day 14 post last dose by plantar test (reference value: 10.6 +/- 0.5 secs)
Rattus norvegicus [33] = test: Antihypersensitivity in oxaliplatin-induced Sprague-Dawley rat hyperalgesia model assessed as increase in weight tolerated on posterior paw at 3.42 mg/kg, sc administered daily up to day 13 measured on day 14 post last dose by analgesimeter relative to control
Rattus norvegicus [34] = test: Antihypersensitivity in oxaliplatin-induced Sprague-Dawley rat thermal hyperalgesia model assessed as paw withdrawal latency time at 3.42 mg/kg, sc administered daily up to day 6 measured on day 7 post last dose by plantar test (reference value: 9 +/- 1 secs)
Rattus norvegicus [35] = test: Antiallodynic activity in oxaliplatin-induced Sprague-Dawley rat allodynia model assessed as paw withdrawal latency time at 3.42 mg/kg, sc administered daily up to day 13 measured on day 14 post last dose by cold plate test (reference value: 12 +/- 1.2 secs)
Rattus norvegicus [36] = test: Antihypersensitivity in oxaliplatin-induced Sprague-Dawley rat thermal hyperalgesia model assessed as paw withdrawal latency time at 3.42 mg/kg, sc administered daily up to day 13 measured on day 14 post last dose by plantar test (reference value: 10.6 +/- 0.5 secs)
Rattus norvegicus [37] = test: Antiallodynic activity in oxaliplatin-induced Sprague-Dawley rat allodynia model assessed as paw withdrawal latency time at 3.42 mg/kg, sc administered daily up to day 6 measured on day 7 post last dose by cold plate test (reference value: 14.3 +/- 0.3 secs)
Rattus norvegicus [38] = test: Antiallodynic activity in oxaliplatin-induced Sprague-Dawley rat allodynia model assessed as increase in paw withdrawal latency time at 3.42 mg/kg, sc administered daily up to day 13 measured on day 14 post last dose by Von Frey test relative to control
Rattus norvegicus [39] = test: Antihypersensitivity in oxaliplatin-induced Sprague-Dawley rat hyperalgesia model assessed as weight tolerated on posterior paw at 3.42 mg/kg, sc administered daily for 7 days post oxaliplatin challenge measured on day 7 post last dose by analgesimeter (reference value: 46.1 +/- 0.5 g)
Rattus norvegicus [40] = test: Antiallodynic activity in oxaliplatin-induced Sprague-Dawley rat allodynia model assessed as paw withdrawal latency time at 3.42 mg/kg, sc administered daily up to day 6 measured on day 7 post last dose by Von Frey test (reference value: 12.4 +/- 1.2 secs)

Cc1ccccc1CSc1ccc(-c2ccccn2)nn1
Time (Rattus norvegicus [1]): 22.5 s
Activity (Rattus norvegicus [2]): 75.9%
Time (Rattus norvegicus [3]): 17 s
Time (Rattus norvegicus [4]): 14.1 s
Activity (Rattus norvegicus [5]): 67.1%
Time (Rattus norvegicus [6]): 18.3 s
Activity (Rattus norvegicus [7]): 76.4%
Activity (Rattus norvegicus [8]): 51.3%

c1ccc(-c2ccc(SCc3nc4ccccc4s3)nn2)nc1
Time (Rattus norvegicus [9]): 15.8 s
Time (Rattus norvegicus [10]): 14.3 s
Time (Rattus norvegicus [11]): 16.3 s
Time (Rattus norvegicus [12]): 16.4 s
Time (Rattus norvegicus [13]): 15.8 s
Activity (Rattus norvegicus [14]): 54.7 g
Activity (Rattus norvegicus [15]): 72.5%

c1ccc(-c2ccc(SCc3ccc4ccccc4n3)nn2)nc1
Activity (Rattus norvegicus [16]): 33%
Time (Rattus norvegicus [17]): 14.5 s
Time (Rattus norvegicus [18]): 11.6 s
Time (Rattus norvegicus [19]): 15.6 s
Activity (Rattus norvegicus [20]): 67.8%
Time (Rattus norvegicus [21]): 13.5 s
Activity (Rattus norvegicus [22]): 31.7%
Activity (Rattus norvegicus [23]): 48.4 g
Time (Rattus norvegicus [24]): 13.7 s

c1ccc(-c2ccc(SCc3ccc4ccccc4c3)nn2)nc1
Activity (Rattus norvegicus [16]): 53%
Time (Rattus norvegicus [17]): 16 s
Time (Rattus norvegicus [18]): 14.2 s
Time (Rattus norvegicus [19]): 16.5 s
Time (Rattus norvegicus [21]): 17.6 s
Time (Rattus norvegicus [6]): 15.5 s
Activity (Rattus norvegicus [22]): 40.1%
Activity (Rattus norvegicus [23]): 51.9 g

c1ccc(-c2ccc(SCc3cccc4nonc34)nn2)nc1
Time (Rattus norvegicus [25]): 15.2 s
Activity (Rattus norvegicus [26]): 62.8%
Activity (Rattus norvegicus [27]): 62.8 g
Activity (Rattus norvegicus [28]): 58.6 g
Time (Rattus norvegicus [29]): 19.4 s
Time (Rattus norvegicus [30]): 22 s
Time (Rattus norvegicus [31]): 23.8 s
Time (Rattus norvegicus [32]): 18.7 s

c1ccc(-c2ccc(SCc3cc4ccccc4s3)nn2)nc1
Activity (Rattus norvegicus [33]): 86.2%
Time (Rattus norvegicus [34]): 12.8 s
Time (Rattus norvegicus [35]): 17.5 s
Time (Rattus norvegicus [36]): 15.1 s
Time (Rattus norvegicus [37]): 17.8 s
Activity (Rattus norvegicus [38]): 64.3%
Activity (Rattus norvegicus [39]): 55.3 g

c1ccc(-c2ccc(SCc3cccc4cccnc34)nn2)nc1
Activity (Rattus norvegicus [16]): 68.7%
Time (Rattus norvegicus [17]): 18 s
Time (Rattus norvegicus [18]): 12.5 s
Time (Rattus norvegicus [19]): 18 s
Time (Rattus norvegicus [21]): 17.6 s
Time (Rattus norvegicus [6]): 13.8 s
Time (Rattus norvegicus [40]): 18.8 s
Activity (Rattus norvegicus [22]): 44.3%
Activity (Rattus norvegicus [23]): 51.3 g
